Assay: isobaric coefficient of expansion
Settings: Liquid, DSC with Pressure Shift

CCCCCN [1-pentanamine]
isobaric coefficient of expansion
Settings	278.15 K	288.15 K	298.15 K	308.15 K	318.15 K	328.15 K	338.15 K	348.15 K
5000 kPa	0.00109 1/K	0.00111 1/K	0.00112 1/K	0.00114 1/K	0.00116 1/K	0.00118 1/K	0.0012 1/K	0.00123 1/K
10000 kPa	0.00107 1/K	0.00108 1/K	0.00109 1/K	0.00111 1/K	0.00112 1/K	0.00114 1/K	0.00116 1/K	0.00118 1/K
15000 kPa	0.00105 1/K	0.00106 1/K	0.00107 1/K	0.00108 1/K	0.00109 1/K	0.0011 1/K	0.00112 1/K	0.00113 1/K
20000 kPa	0.00102 1/K	0.00104 1/K	0.00104 1/K	0.00106 1/K	0.00106 1/K	0.00107 1/K	0.00108 1/K	0.0011 1/K
25000 kPa	0.00101 1/K	0.00102 1/K	0.00102 1/K	0.00103 1/K	0.00104 1/K	0.00104 1/K	0.00105 1/K	0.00106 1/K
30000 kPa	0.000988 1/K	0.000994 1/K	0.001 1/K	0.00101 1/K	0.00101 1/K	0.00102 1/K	0.00102 1/K	0.00103 1/K
35000 kPa	0.000969 1/K	0.000973 1/K	0.000981 1/K	0.000988 1/K	0.000989 1/K	0.000989 1/K	0.000993 1/K	0.000999 1/K
40000 kPa	0.000954 1/K	0.000958 1/K	0.000966 1/K	0.000968 1/K	0.000967 1/K	0.000971 1/K	0.000972 1/K	0.000972 1/K
45000 kPa	0.000938 1/K	0.000937 1/K	0.000944 1/K	0.000949 1/K	0.000947 1/K	0.000949 1/K	0.000951 1/K	0.000954 1/K
50000 kPa	0.000921 1/K	0.000925 1/K	0.000927 1/K	0.000929 1/K	0.000928 1/K	0.000931 1/K	0.00093 1/K	0.00093 1/K
55000 kPa	0.000895 1/K	0.0009 1/K	0.000894 1/K	0.000898 1/K	0.000898 1/K	0.000898 1/K	0.000899 1/K	0.000891 1/K

From the NIST ThermoML archive (doi:10.1016/j.jct.2009.07.002)
